In patent publication US9175003B2, “Substituted azoanthracene derivatives and intermediates for preparation thereof” (TransTech Pharma, LLC, priority 2009, dated 2015):

target: human GLP-1 receptor (Homo sapiens (Human), UniProt P43220); conditions: read-out: Mean EC50; cAMP, HTRF detection, 30 min at 37° C., HEK-293 cells expressing cloned human GLP-1 receptor
Sequence (P43220 24-463): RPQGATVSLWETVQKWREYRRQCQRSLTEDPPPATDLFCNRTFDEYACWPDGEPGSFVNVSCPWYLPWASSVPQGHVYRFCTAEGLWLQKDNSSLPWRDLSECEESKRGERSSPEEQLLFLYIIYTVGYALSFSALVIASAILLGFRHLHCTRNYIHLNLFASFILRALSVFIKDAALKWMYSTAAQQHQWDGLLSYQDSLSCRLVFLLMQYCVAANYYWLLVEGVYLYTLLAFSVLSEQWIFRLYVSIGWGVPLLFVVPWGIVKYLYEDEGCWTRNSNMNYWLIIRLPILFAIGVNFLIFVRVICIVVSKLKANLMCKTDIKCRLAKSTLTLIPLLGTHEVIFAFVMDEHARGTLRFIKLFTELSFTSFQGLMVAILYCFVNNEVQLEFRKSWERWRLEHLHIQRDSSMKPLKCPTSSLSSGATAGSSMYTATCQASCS

SMILES | EC50
Cc1nccc(-c2ccc(C[C@H](NC(=O)[C@@H]3Cc4cc5c(cc4CN3C(=O)N[C@@H](C)c3ccccc3)O[C@@H](c3ccc(OCc4ccc(Cl)c(Cl)c4)cc3)CO5)C(=O)O)cc2)c1C [Example 239, (S)-2-{[(3S,8S)-3-[4-(3,4-Dichloro-benzyloxy)-phenyl]-7-((S)-1-phenyl-ethylcarbamoyl)-2,3,6,7,8,9-hexahydro-[1,4]dioxino[2,3-g]isoquinoline-8-carbonyl]-amino}-3-[4-(2,3-dimethyl-pyridin-4-yl)-phenyl]-propionic acid] | 0.082 µM
Cc1nccc(-c2ccc(C[C@H](NC(=O)[C@@H]3Cc4cc5c(cc4CN3C(=O)N[C@H](C)c3ccccc3)O[C@@H](c3ccc(OCc4ccc(Cl)c(Cl)c4)cc3)CO5)C(=O)O)cc2)c1C [Example 240, (S)-2-{[(3S,8S)-3-[4-(3,4-Dichloro-benzyloxy)-phenyl]-7-((R)-1-phenyl-ethylcarbamoyl)-2,3,6,7,8,9-hexahydro-[1,4]dioxino[2,3-g]isoquinoline-8-carbonyl]-amino}-3-[4-(2,3-dimethyl-pyridin-4-yl)-phenyl]-propionic acid] | 0.056 µM
Cc1ccc(NC(=O)N2Cc3cc4c(cc3C[C@H]2C(=O)N[C@@H](Cc2ccc(-c3ccnc(C)c3C)cc2)C(=O)O)OC[C@H](c2ccc(OCc3ccc(Cl)c(Cl)c3)cc2)O4)cc1 [Example 243, (S)-2-({(3S,8S)-3-[4-(3,4-Dichloro-benzyloxy)-phenyl]-7-p-tolylcarbamoyl-2,3,6,7,8,9-hexahydro-[1,4]dioxino[2,3-g]isoquinoline-8-carbonyl}-amino)-3-[4-(2,3-dimethyl-pyridin-4-yl)-phenyl]-propionic acid] | 0.092 µM
CC[C@H](NC(=O)N1Cc2cc3c(cc2C[C@H]1C(=O)N[C@@H](Cc1ccc(-c2ccnc(C)c2C)cc1)C(=O)O)OC[C@H](c1ccc(OCc2ccc(Cl)c(Cl)c2)cc1)O3)c1ccccc1 [Example 245, (S)-2-{[(3S,8S)-3-[4-(3,4-Dichloro-benzyloxy)-phenyl]-7-((S)-1-phenyl-propylcarbamoyl)-2,3,6,7,8,9-hexahydro-[1,4]dioxino[2,3-g]isoquinoline-8-carbonyl]-amino}-3-[4-(2,3-dimethyl-pyridin-4-yl)-phenyl]-propionic acid] | 0.203 µM
Cc1nccc(-c2ccc(C[C@H](NC(=O)[C@@H]3Cc4cc5c(cc4CN3C(=O)N[C@H](C)c3ccc(F)cc3)O[C@@H](c3ccc(OCc4ccc(Cl)c(Cl)c4)cc3)CO5)C(=O)O)cc2)c1C [Example 247, (S)-2-({(3S,8S)-3-[4-(3,4-Dichloro-benzyloxy)-phenyl]-7-[(R)-1-(4-fluoro-phenyl)-ethylcarbamoyl]-2,3,6,7,8,9-hexahydro-[1,4]dioxino[2,3-g]isoquinoline-8-carbonyl}-amino)-3-[4-(2,3-dimethyl-pyridin-4-yl)-phenyl]-propionic acid] | 0.175 µM
Cc1nccc(-c2ccc(C[C@H](NC(=O)[C@@H]3Cc4cc5c(cc4CN3C(=O)NC3CCCC3)O[C@@H](c3ccc(OCc4ccc(Cl)c(Cl)c4)cc3)CO5)C(=O)O)cc2)c1C [Example 248, (S)-2-({(3S,8S)-7-Cyclopentylcarbamoyl-3-[4-(3,4-dichloro-benzyloxy)-phenyl]-2,3,6,7,8,9-hexahydro-[1,4]dioxino[2,3-g]isoquinoline-8-carbonyl}-amino)-3-[4-(2,3-dimethyl-pyridin-4-yl)-phenyl]-propionic acid] | 0.187 µM
Cc1nccc(-c2ccc(C[C@H](NC(=O)[C@@H]3Cc4cc5c(cc4CN3C(=O)NC(C)C)O[C@@H](c3ccc(OCc4ccc(Cl)c(Cl)c4)cc3)CO5)C(=O)O)cc2)c1C [Example 250, (S)-2-({(3S,8S)-3-[4-(3,4-Dichloro-benzyloxy)-phenyl]-7-isopropylcarbamoyl-2,3,6,7,8,9-hexahydro-[1,4]dioxino[2,3-g]isoquinoline-8-carbonyl}-amino)-3-[4-(2,3-dimethyl-pyridin-4-yl)-phenyl]-propionic acid] | 0.171 µM
Cc1nccc(-c2ccc(C[C@H](NC(=O)[C@@H]3Cc4cc5c(cc4CN3C(=O)NC(C)(C)C)O[C@@H](c3ccc(OCc4ccc(Cl)c(Cl)c4)cc3)CO5)C(=O)O)cc2)c1C [Example 251, (S)-2-({(3S,8S)-7-tert-Butylcarbamoyl-3-[4-(3,4-dichloro-benzyloxy)-phenyl]-2,3,6,7,8,9-hexahydro-[1,4]dioxino[2,3-g]isoquinoline-8-carbonyl}-amino)-3-[4-(2,3-dimethyl-pyridin-4-yl)-phenyl]-propionic acid] | 0.144 µM
Cc1nccc(-c2ccc(C[C@H](NC(=O)[C@@H]3Cc4cc5c(cc4CN3C(=O)NC3CCCCC3)O[C@@H](c3ccc(OCc4ccc(Cl)c(Cl)c4)cc3)CO5)C(=O)O)cc2)c1C [Example 252, (S)-2-({(3S,8S)-7-Cyclohexylcarbamoyl-3-[4-(3,4-dichloro-benzyloxy)-phenyl]-2,3,6,7,8,9-hexahydro-[1,4]dioxino[2,3-g]isoquinoline-8-carbonyl}-amino)-3-[4-(2,3-dimethyl-pyridin-4-yl)-phenyl]-propionic acid] | 0.099 µM
Cc1cccc(NC(=O)N2Cc3cc4c(cc3C[C@H]2C(=O)N[C@@H](Cc2ccc(-c3ccnc(C)c3C)cc2)C(=O)O)OC[C@H](c2ccc(OCc3ccc(Cl)c(Cl)c3)cc2)O4)c1 [Example 253, (S)-2-({(3S,8S)-3-[4-(3,4-Dichloro-benzyloxy)-phenyl]-7-m-tolylcarbamoyl-2,3,6,7,8,9-hexahydro-[1,4]dioxino[2,3-g]isoquinoline-8-carbonyl}-amino)-3-[4-(2,3-dimethyl-pyridin-4-yl)-phenyl]-propionic acid] | 0.085 µM
Cc1nccc(-c2ccc(C[C@H](NC(=O)[C@@H]3Cc4cc5c(cc4CN3C(=O)Nc3ccc(F)c(F)c3)O[C@@H](c3ccc(OCc4ccc(Cl)c(Cl)c4)cc3)CO5)C(=O)O)cc2)c1C [Example 254, (S)-2-{[(3S,8S)-3-[4-(3,4-Dichloro-benzyloxy)-phenyl]-7-(3,4-difluoro-phenylcarbamoyl)-2,3,6,7,8,9-hexahydro-[1,4]dioxino[2,3-g]isoquinoline-8-carbonyl]-amino}-3-[4-(2,3-dimethyl-pyridin-4-yl)-phenyl]-propionic acid] | 0.186 µM

More lines, now with the values ahead:

EC50 | SMILES
0.317 µM | Cc1nccc(-c2ccc(C[C@H](NC(=O)[C@@H]3Cc4cc5c(cc4CN3C(=O)Nc3cc(F)cc(F)c3)O[C@@H](c3ccc(OCc4ccc(Cl)c(Cl)c4)cc3)CO5)C(=O)O)cc2)c1C [Example 255, (S)-2-{[(3S,8S)-3-[4-(3,4-Dichloro-benzyloxy)-phenyl]-7-(3,5-difluoro-phenylcarbamoyl)-2,3,6,7,8,9-hexahydro-[1,4]dioxino[2,3-g]isoquinoline-8-carbonyl]-amino}-3-[4-(2,3-dimethyl-pyridin-4-yl)-phenyl]-propionic acid]
0.348 µM | Cc1nccc(-c2ccc(C[C@H](NC(=O)[C@@H]3Cc4cc5c(cc4CN3C(=O)Nc3cnccn3)O[C@@H](c3ccc(OCc4ccc(Cl)c(Cl)c4)cc3)CO5)C(=O)O)cc2)c1C [Example 257, (S)-2-{[(3S,8S)-3-[4-(3,4-Dichloro-benzyloxy)-phenyl]-7-(pyrazin-2-ylcarbamoyl)-2,3,6,7,8,9-hexahydro-[1,4]dioxino[2,3-g]isoquinoline-8-carbonyl]-amino}-3-[4-(2,3-dimethyl-pyridin-4-yl)-phenyl]-propionic acid]
0.251 µM | Cc1nccc(-c2ccc(C[C@H](NC(=O)[C@@H]3Cc4cc5c(cc4CN3C(=O)Nc3ccccn3)O[C@@H](c3ccc(OCc4ccc(Cl)c(Cl)c4)cc3)CO5)C(=O)O)cc2)c1C [Example 258, (S)-2-{[(3S,8S)-3-[4-(3,4-dichloro-benzyloxy)-phenyl]-7-(pyridin-2-ylcarbamoyl)-2,3,6,7,8,9-hexahydro-[1,4]dioxino[2,3-g]isoquinoline-8-carbonyl]-amino}-3-[4-(2,3-dimethyl-pyridin-4-yl)-phenyl]-propionic acid]
0.187 µM | Cc1ncoc1C(=O)N1Cc2cc3c(cc2C[C@H]1C(=O)N[C@@H](Cc1ccc(Oc2ccnc(C)c2C)cc1)C(=O)O)OC[C@H](c1ccc(OCc2ccc(Cl)c(Cl)c2)cc1)O3 [Example 263, (S)-2-{[(3S,8S)-3-[4-(3,4-Dichloro-benzyloxy)-phenyl]-7-(4-methyl-oxazole-5-carbonyl)-2,3,6,7,8,9-hexahydro-[1,4]dioxino[2,3-g]isoquinoline-8-carbonyl]-amino}-3-[4-(2,3-dimethyl-pyridin-4-yloxy)-phenyl]-propionic acid]
0.095 µM | Cc1nc(C)c(C(=O)N2Cc3cc4c(cc3C[C@H]2C(=O)N[C@@H](Cc2ccc(Oc3ccnc(C)c3C)cc2)C(=O)O)OC[C@H](c2ccc(OCc3ccc(Cl)c(Cl)c3)cc2)O4)o1 [Example 265, (S)-2-{[(3S,8S)-3-[4-(3,4-Dichloro-benzyloxy)-phenyl]-7-(2,4-dimethyl-oxazole-5-carbonyl)-2,3,6,7,8,9-hexahydro-[1,4]dioxino[2,3-g]isoquinoline-8-carbonyl]-amino}-3-[4-(2,3-dimethyl-pyridin-4-yloxy)-phenyl]-propionic acid]
0.132 µM | Cc1cc(C(=O)N2Cc3cc4c(cc3C[C@H]2C(=O)N[C@@H](Cc2ccc(Oc3ccnc(C)c3C)cc2)C(=O)O)OC[C@H](c2ccc(OCc3ccc(Cl)c(Cl)c3)cc2)O4)n(C)n1 [Example 266, (S)-2-{[(3S,8S)-3-[4-(3,4-Dichloro-benzyloxy)-phenyl]-7-(2,5-dimethyl-2H-pyrazole-3-carbonyl)-2,3,6,7,8,9-hexahydro-[1,4]dioxino[2,3-g]isoquinoline-8-carbonyl]-amino}-3-[4-(2,3-dimethyl-pyridin-4-yloxy)-phenyl]-propionic acid]
0.142 µM | Cc1cc(C(=O)N2Cc3cc4c(cc3C[C@H]2C(=O)N[C@@H](Cc2ccc(-c3ccnc(C)c3C)cc2)C(=O)O)OC[C@H](c2ccc(OCc3ccc(Cl)c(Cl)c3)cc2)O4)n(C)n1 [Example 270, (S)-2-{[(3S,8S)-3-[4-(3,4-Dichloro-benzyloxy)-phenyl]-7-(2,5-dimethyl-2H-pyrazole-3-carbonyl)-2,3,6,7,8,9-hexahydro-[1,4]dioxino[2,3-g]isoquinoline-8-carbonyl]-amino}-3-[4-(2,3-dimethyl-pyridin-4-yl)-phenyl]-propionoc acid]
